Two molecules from paper PMC2528830 (British Journal of Pharmacology, 2008) can be followed below.

Assay [1] addresses T1, GPR119 (Homo sapiens, UniProt Q8TDV5).
T1 sequence (Q8TDV5 1-335): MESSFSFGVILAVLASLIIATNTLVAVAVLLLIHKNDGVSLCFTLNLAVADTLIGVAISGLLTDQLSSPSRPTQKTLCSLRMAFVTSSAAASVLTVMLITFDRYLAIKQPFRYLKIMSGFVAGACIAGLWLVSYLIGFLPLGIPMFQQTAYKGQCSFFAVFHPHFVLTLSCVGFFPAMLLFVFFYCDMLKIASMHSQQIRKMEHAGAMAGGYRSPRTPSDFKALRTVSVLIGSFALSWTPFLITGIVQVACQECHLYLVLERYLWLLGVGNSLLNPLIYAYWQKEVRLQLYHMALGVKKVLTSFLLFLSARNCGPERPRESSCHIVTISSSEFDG
Nature of the assay: cAMP accumulation in HEK293-GPR119 vs untransfected cells. In kind it is cell-based.

In assay [2] the target is T1, GPR119. Nature of the assay: insulin secretion at […] in RINm5f-GPR119 vs parental RINm5f cells. The format is cell-based.

Turning to `CCCC[C@H]1CC[C@H](c2nc(-c3ccncc3)no2)CC1` [PSN375963], the concentration giving a half-maximal response (EC50) at GPR119 [1] was found to be 13.9 µM.

In the case of `CCCCCCCC/C=C\CCCCCCCC(=O)NCCO` [oleoylethanolamide], the “insulin secretion at 10 μM in RINm5f-GPR119 vs parental RINm5f cells” value on GPR119 [2] was “RINm5f cells transfected with human GPR119 (RIN-119 cells) responded to OEA and had an increased response to OLPC”.
